Data reported in ChEMBL document CHEMBL5120829, “Discovery and structural optimization of potent epidermal growth factor receptor (EGFR) inhibitors against L858R/T790M/C797S resistance mutation for lung cancer treatment” (Eur J Med Chem, 2022).
Active and inactive are the calls of the source. No cut-off for these calls is given here.

Legend:
[1] = molecular target: Signal transducer and activator of transcription 3 (Homo sapiens) (UniProt P40763); assay: Inhibition of STAT3 phosphorylation in human PC-9 cells expressing EGFR L858R/T790M/C797S mutant at 0.01 to 1 uM by Western blot analysis; format: cell-based; conditions: dose 0.01-1 µM
Signal transducer and activator of transcription 3 (Homo sapiens), sequence (P40763 whole entry): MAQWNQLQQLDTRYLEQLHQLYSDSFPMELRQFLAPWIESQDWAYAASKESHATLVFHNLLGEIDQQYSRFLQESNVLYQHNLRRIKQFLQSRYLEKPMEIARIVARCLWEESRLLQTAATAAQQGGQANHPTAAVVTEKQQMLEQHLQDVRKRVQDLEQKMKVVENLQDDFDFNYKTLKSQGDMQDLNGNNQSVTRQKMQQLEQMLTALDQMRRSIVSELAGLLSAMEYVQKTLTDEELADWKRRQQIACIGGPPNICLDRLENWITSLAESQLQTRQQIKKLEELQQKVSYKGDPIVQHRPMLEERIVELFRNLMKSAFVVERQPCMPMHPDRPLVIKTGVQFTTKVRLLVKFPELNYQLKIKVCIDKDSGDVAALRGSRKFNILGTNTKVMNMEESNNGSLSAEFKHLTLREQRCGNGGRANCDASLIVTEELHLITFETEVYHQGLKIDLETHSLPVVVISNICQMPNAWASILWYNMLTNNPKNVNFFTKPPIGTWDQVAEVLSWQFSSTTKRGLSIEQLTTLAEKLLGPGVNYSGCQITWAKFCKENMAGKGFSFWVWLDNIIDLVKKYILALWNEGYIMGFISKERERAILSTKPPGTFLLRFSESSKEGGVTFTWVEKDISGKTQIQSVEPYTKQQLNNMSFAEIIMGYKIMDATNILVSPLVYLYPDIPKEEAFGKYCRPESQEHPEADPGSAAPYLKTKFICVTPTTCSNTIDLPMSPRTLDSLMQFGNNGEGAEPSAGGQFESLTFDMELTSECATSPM

[2] = system: Epidermal growth factor receptor (Homo sapiens), P00533 [L858R,T790M,C797S]; assay: Inhibition of EGFR phosphorylation in human PC-9 cells expressing EGFR L858R/T790M/C797S mutant at 0.01 to 1 uM by Western blot analysis; format: cell-based; conditions: dose 0.01-1 µM
Epidermal growth factor receptor (Homo sapiens), P00533 [L858R,T790M,C797S], sequence (P00533 whole entry T790M/C797S/L858R): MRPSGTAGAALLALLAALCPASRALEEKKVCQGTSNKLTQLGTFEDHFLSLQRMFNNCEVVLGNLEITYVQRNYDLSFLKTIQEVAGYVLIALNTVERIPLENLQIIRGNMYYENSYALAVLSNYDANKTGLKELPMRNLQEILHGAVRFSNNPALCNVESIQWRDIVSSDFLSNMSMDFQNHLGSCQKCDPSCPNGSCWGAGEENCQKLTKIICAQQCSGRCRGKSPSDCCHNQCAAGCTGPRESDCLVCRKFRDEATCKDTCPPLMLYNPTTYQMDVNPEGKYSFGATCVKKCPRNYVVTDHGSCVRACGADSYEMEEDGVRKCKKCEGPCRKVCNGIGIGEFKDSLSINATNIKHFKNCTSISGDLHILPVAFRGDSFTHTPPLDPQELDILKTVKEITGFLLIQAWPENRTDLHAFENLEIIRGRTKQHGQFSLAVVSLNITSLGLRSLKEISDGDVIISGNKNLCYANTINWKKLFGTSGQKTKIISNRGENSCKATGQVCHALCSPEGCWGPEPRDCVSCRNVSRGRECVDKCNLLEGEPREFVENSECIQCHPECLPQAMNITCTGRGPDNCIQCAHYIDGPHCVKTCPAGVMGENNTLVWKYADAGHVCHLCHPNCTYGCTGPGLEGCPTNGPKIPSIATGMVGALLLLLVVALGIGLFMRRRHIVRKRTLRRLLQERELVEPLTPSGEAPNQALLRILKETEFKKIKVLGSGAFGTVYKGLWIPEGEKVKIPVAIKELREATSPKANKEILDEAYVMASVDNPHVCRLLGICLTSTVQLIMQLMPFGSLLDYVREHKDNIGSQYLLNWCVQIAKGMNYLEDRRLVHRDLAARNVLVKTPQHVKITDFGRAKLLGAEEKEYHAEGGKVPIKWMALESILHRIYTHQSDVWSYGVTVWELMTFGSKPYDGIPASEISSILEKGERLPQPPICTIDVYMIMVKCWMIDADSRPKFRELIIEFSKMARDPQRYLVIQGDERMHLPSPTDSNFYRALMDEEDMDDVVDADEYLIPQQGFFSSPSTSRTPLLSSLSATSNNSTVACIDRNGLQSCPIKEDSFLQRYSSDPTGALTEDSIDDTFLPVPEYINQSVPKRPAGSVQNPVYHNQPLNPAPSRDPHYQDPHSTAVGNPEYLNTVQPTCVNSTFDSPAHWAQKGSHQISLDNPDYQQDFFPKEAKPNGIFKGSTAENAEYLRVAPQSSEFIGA

[3] = system: Epidermal growth factor receptor (Homo sapiens), P00533 [L858R,T790M,C797S]; assay: Inhibition of EGFR L858R/T790M/C797S mutant (unknown origin) at 0.5 uM relative to control
[4] = system: Epidermal growth factor receptor (Homo sapiens), P00533 [L858R,T790M,C797S]; assay: Inhibition of EGFR L858R/T790M/C797S mutant (unknown origin) at 1 uM relative to control
[5] = molecular target: Epidermal growth factor receptor (Homo sapiens, UniProt P00533, C797S/L858R/T790M); assay: Inhibition of EGFR L858R/T790M/C797S mutant (unknown origin)
Epidermal growth factor receptor, sequence (P00533 25-1210 T790M/C797S/L858R limits assumed): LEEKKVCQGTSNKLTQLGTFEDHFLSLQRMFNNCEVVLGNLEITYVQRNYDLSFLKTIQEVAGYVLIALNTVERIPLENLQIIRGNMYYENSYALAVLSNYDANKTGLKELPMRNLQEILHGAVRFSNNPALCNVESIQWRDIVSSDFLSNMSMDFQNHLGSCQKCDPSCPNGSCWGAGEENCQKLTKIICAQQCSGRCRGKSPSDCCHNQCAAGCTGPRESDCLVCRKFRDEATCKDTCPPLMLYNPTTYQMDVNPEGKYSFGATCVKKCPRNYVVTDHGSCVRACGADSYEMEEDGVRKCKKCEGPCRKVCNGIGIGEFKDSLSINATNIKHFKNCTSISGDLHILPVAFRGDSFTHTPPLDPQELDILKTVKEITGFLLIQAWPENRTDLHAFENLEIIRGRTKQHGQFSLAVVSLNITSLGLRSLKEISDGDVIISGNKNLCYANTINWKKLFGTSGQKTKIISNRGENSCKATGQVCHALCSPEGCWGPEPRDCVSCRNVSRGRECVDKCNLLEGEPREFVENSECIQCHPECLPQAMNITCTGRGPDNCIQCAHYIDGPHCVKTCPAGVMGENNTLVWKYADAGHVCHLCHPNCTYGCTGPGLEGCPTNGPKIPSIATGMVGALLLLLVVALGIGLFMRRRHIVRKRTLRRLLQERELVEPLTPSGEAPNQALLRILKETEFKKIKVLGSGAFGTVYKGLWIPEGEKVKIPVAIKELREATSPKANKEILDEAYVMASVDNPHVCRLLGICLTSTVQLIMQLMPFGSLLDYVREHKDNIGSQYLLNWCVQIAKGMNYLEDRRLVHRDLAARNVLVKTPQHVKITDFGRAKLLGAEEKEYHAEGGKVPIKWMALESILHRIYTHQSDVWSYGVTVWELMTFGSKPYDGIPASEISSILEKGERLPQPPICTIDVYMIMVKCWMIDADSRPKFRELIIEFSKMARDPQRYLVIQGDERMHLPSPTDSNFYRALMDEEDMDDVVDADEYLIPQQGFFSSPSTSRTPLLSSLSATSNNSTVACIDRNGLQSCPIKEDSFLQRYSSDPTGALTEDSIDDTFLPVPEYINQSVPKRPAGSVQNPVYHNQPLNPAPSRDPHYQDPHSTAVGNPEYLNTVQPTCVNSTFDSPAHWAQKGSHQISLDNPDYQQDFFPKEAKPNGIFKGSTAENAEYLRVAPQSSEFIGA

[6] = system: PC-9; assay: Antiproliferative activity against human PC-9 cells expressing EGFR L858R/T790M/C797S mutant assessed as inhibition of cell growth incubated for 72 hrs by CCK-8 assay; format: functional, cell-based; conditions: PC-9, 72 h
[7] = system: A-431; assay: Antiproliferative activity against human A-431 cells assessed as inhibition of cell growth incubated for 72 hrs by CCK-8 assay; format: functional, cell-based; conditions: A-431, 72 h
[8] = system: A549; assay: Antiproliferative activity against human A549 cells assessed as inhibition of cell growth incubated for 72 hrs by CCK-8 assay; format: functional, cell-based; conditions: A549, 72 h
[9] = system: PC-9; assay: Cell cycle arrest in human PC-9 cells expressing EGFR L858R/T790M/C797S mutant assessed as increase in accumulation of cells at G0/G1 phase at 0.01 to 1 uM incubated for 24 hrs by RNase/PI staining based flow cytometry analysis; format: functional; conditions: dose 0.01-1 µM
[10] = system: PC-9; assay: Induction of apoptosis in human PC-9 cells expressing EGFR L858R/T790M/C797S mutant assessed as viable cells at 0.01 uM incubated for 24 hrs by annexin-V/propidium iodide staining-based flow cytometry analysis (reference value: 99.1 %); format: functional; conditions: read-out: Activity
[11] = system: PC-9; assay: Induction of apoptosis in human PC-9 cells expressing EGFR L858R/T790M/C797S mutant assessed as early apoptotic cells at 0.01 uM incubated for 24 hrs by annexin-V/propidium iodide staining-based flow cytometry analysis (reference value: 0.3 %); format: functional
[12] = system: PC-9; assay: Induction of apoptosis in human PC-9 cells expressing EGFR L858R/T790M/C797S mutant assessed as late apoptotic cells at 0.01 uM incubated for 24 hrs by annexin-V/propidium iodide staining-based flow cytometry analysis (reference value: 0.14 %); format: functional
[13] = system: PC-9; assay: Induction of apoptosis in human PC-9 cells expressing EGFR L858R/T790M/C797S mutant assessed as dead cells at 0.01 uM incubated for 24 hrs by annexin-V/propidium iodide staining-based flow cytometry analysis (reference value: 0.43 %); format: functional
[14] = system: PC-9; assay: Induction of apoptosis in human PC-9 cells expressing EGFR L858R/T790M/C797S mutant assessed as viable cells at 0.05 uM incubated for 24 hrs by annexin-V/propidium iodide staining-based flow cytometry analysis (reference value: 99.1 %); format: functional; conditions: read-out: Activity
[15] = system: PC-9; assay: Induction of apoptosis in human PC-9 cells expressing EGFR L858R/T790M/C797S mutant assessed as early apoptotic cells at 0.05 uM incubated for 24 hrs by annexin-V/propidium iodide staining-based flow cytometry analysis (reference value: 0.3 %); format: functional
[16] = system: PC-9; assay: Induction of apoptosis in human PC-9 cells expressing EGFR L858R/T790M/C797S mutant assessed as late apoptotic cells at 0.05 uM incubated for 24 hrs by annexin-V/propidium iodide staining-based flow cytometry analysis (reference value: 0.14 %); format: functional
[17] = system: PC-9; assay: Induction of apoptosis in human PC-9 cells expressing EGFR L858R/T790M/C797S mutant assessed as dead cells at 0.05 uM incubated for 24 hrs by annexin-V/propidium iodide staining-based flow cytometry analysis (reference value: 0.43 %); format: functional
[18] = system: PC-9; assay: Induction of apoptosis in human PC-9 cells expressing EGFR L858R/T790M/C797S mutant assessed as viable cells at 0.25 uM incubated for 24 hrs by annexin-V/propidium iodide staining-based flow cytometry analysis (reference value: 99.1 %); format: functional; conditions: Homo sapiens, PC-9, read-out: Activity
[19] = system: PC-9; assay: Induction of apoptosis in human PC-9 cells expressing EGFR L858R/T790M/C797S mutant assessed as early apoptotic cells at 0.25 uM incubated for 24 hrs by annexin-V/propidium iodide staining-based flow cytometry analysis (reference value: 0.3 %); format: functional
[20] = system: PC-9; assay: Induction of apoptosis in human PC-9 cells expressing EGFR L858R/T790M/C797S mutant assessed as late apoptotic cells at 0.25 uM incubated for 24 hrs by annexin-V/propidium iodide staining-based flow cytometry analysis (reference value: 0.14 %); format: functional
[21] = system: PC-9; assay: Induction of apoptosis in human PC-9 cells expressing EGFR L858R/T790M/C797S mutant assessed as dead cells at 0.25 uM incubated for 24 hrs by annexin-V/propidium iodide staining-based flow cytometry analysis (reference value: 0.43 %); format: functional
[22] = molecular target: Serine/threonine-protein kinase AKT (Homo sapiens) (UniProt P31751+Q9Y243+P31749); assay: Inhibition of AKT phosphorylation in human PC-9 cells expressing EGFR L858R/T790M/C797S mutant at 0.01 to 1 uM by Western blot analysis; format: cell-based; conditions: dose 0.01-1 µM
Serine/threonine-protein kinase AKT (Homo sapiens), sequence (P31749 whole entry, looked up): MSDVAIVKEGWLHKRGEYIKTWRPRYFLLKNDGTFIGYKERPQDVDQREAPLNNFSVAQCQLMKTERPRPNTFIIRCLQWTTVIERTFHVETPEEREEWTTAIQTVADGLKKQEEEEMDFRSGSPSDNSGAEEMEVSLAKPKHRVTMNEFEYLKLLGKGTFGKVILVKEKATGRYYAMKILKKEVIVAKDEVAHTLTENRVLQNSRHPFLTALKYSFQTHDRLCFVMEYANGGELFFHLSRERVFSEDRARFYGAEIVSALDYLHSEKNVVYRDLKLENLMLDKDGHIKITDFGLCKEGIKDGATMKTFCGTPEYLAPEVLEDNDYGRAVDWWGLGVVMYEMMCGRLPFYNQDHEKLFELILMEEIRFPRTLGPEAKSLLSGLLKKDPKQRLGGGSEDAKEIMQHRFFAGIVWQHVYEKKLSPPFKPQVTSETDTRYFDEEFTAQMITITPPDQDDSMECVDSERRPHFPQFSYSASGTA
Serine/threonine-protein kinase AKT (Homo sapiens), sequence (P31751 whole entry, looked up): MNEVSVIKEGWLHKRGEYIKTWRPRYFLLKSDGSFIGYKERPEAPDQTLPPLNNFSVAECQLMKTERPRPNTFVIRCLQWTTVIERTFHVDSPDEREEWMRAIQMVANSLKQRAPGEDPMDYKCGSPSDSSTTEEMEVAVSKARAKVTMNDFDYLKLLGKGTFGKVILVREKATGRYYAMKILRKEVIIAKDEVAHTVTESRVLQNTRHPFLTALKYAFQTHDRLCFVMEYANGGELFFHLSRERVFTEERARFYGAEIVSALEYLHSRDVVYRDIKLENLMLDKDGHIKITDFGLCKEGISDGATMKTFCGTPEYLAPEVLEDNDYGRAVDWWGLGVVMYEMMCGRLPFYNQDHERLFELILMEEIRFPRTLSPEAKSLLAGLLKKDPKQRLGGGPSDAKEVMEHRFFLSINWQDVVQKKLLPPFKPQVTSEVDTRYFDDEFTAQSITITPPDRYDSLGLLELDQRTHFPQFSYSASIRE
Serine/threonine-protein kinase AKT (Homo sapiens), sequence (Q9Y243 whole entry, looked up): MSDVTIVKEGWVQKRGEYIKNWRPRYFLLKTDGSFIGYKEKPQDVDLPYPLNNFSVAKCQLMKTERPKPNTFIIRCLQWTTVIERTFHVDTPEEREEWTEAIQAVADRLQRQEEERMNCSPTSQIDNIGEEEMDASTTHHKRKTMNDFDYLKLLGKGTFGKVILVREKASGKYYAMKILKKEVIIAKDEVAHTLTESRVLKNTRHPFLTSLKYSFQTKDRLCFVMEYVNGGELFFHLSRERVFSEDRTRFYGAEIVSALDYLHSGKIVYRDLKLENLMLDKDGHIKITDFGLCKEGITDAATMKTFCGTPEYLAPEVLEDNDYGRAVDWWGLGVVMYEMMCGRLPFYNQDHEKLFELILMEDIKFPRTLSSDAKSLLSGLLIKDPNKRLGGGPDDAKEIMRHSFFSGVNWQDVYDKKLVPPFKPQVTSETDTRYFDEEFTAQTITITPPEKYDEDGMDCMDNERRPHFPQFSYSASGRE

[23] = system: PC-9; assay: Antitumor activity against human PC-9 cells expressing EGFR L858R/T790M/C797S mutant xenografted in po dosed BALB/c nude mouse assessed as inhibition of tumor growth measured every other day for 18 days by digital vernier caliper analysis; format: functional, organism-based; conditions: dose 10-40 mg/kg, time 18.0 day, DDE = dose-dependent effect
[24] = system: PC-9; assay: Antitumor activity against human PC-9 cells expressing EGFR L858R/T790M/C797S mutant xenografted in BALB/c nude mouse assessed as reduction in tumor weight at 10 to 40 mg/kg, po measured every day for 18 days by digital vernier caliper analysis; format: functional, organism-based; conditions: dose 10-40 mg/kg, time 18.0 day
[25] = Toxicity in BALB/c nude mouse xenografted with human PC-9 cells expressing EGFR L858R/T790M/C797S mutant assessed as body weight loss at 10 to 40 mg/kg, po measured every day for 18 days; format: organism-based; conditions: in vivo, 432 h, dose 10-40 mg/kg, time 18 day
[26] = AUC(0 to infinity) in overnight fasted Sprague-Dawley rat at 20 mg/kg, iv by HPLC analysis; format: ADME, organism-based; design: time infinity, dose 20 mg/kg, route iv; conditions: in vivo
[27] = AUC(0 to infinity) in overnight fasted Sprague-Dawley rat at 20 mg/kg, po by HPLC analysis; format: ADME, organism-based; design: time infinity, dose 20 mg/kg, route po; conditions: in vivo
[28] = Cmax in overnight fasted Sprague-Dawley rat at 20 mg/kg, iv by HPLC analysis; format: ADME, organism-based; design: dose 20 mg/kg, route iv; conditions: in vivo
[29] = Cmax in overnight fasted Sprague-Dawley rat at 20 mg/kg, po by HPLC analysis; format: ADME, organism-based; design: dose 20 mg/kg, route po; conditions: in vivo
[30] = Tmax in overnight fasted Sprague-Dawley rat at 20 mg/kg, iv by HPLC analysis; format: ADME, organism-based; conditions: in vivo
[31] = Tmax in overnight fasted Sprague-Dawley rat at 20 mg/kg, po by HPLC analysis; format: ADME, organism-based; conditions: in vivo
[32] = Oral bioavailability in overnight fasted Sprague-Dawley rat at 20 mg/kg by HPLC analysis; format: ADME, organism-based; conditions: in vivo
[33] = MRT (0 to infinity) in overnight fasted Sprague-Dawley rat at 20 mg/kg, iv by HPLC analysis; format: ADME, organism-based; conditions: in vivo
[34] = MRT (0 to infinity) in overnight fasted Sprague-Dawley rat at 20 mg/kg, po by HPLC analysis; format: ADME, organism-based; conditions: in vivo
[35] = Volume of distribution at steady state in overnight fasted Sprague-Dawley rat at 20 mg/kg, iv by HPLC analysis; format: ADME, organism-based; conditions: in vivo, read-out: Vdss
[36] = Volume of distribution at steady state in overnight fasted Sprague-Dawley rat at 20 mg/kg, po by HPLC analysis; format: ADME, organism-based; conditions: in vivo
[37] = Clearance in overnight fasted Sprague-Dawley rat at 20 mg/kg, iv by HPLC analysis; format: ADME, organism-based; conditions: in vivo
[38] = Clearance in overnight fasted Sprague-Dawley rat at 20 mg/kg, po by HPLC analysis; format: ADME, organism-based; conditions: in vivo
[39] = Half life in overnight fasted Sprague-Dawley rat at 20 mg/kg, iv by HPLC analysis; format: ADME, organism-based; conditions: in vivo
[40] = Half life in overnight fasted Sprague-Dawley rat at 20 mg/kg, po by HPLC analysis; format: ADME, organism-based; conditions: in vivo

CN1CCN(c2ccc(Nc3ncc4cc(CNc5ccccc5)n(C5CCCC5)c4n3)cc2)CC1
inhibition [1]: Active
inhibition [2]: Active
inhibition [3]: 83%
inhibition [4]: 90%
IC50 [5]: 17 nM
IC50 [6]: 13 nM
IC50 [7]: 2970 nM
IC50 [8]: 1030 nM
Activity [9]: Active
viability at 0.01 µM [10]: 93.1%
Activity [11]: 1.21%
Activity [12]: 4.53%
Activity [13]: 1.14%
viability at 0.05 µM [14]: 88.2%
Activity [15]: 5.43%
Activity [16]: 5.21%
Activity [17]: 1.11%
viability at 0.25 µM [18]: 75.4%
Activity [19]: 6.8%
Activity [20]: 10.7%
Activity [21]: 7.03%
inhibition [22]: Active
Activity [23]: Dde
Activity [24]: Active
Activity [25]: Non-Toxic
AUC(0-inf) [26]: 15900 ng·h/mL
AUC(0-inf) [27]: 10500 ng·h/mL
Cmax [28]: 6840 ng/mL
Cmax [29]: 770 ng/mL
Tmax [30]: 4.98 min
Tmax [31]: 6 h
bioavailability [32]: 66%
MRT inf [33]: 16.4 h
MRT inf [34]: 16.8 h
Vd [35]: 16 L/kg
Vdss [36]: 28.101 L/kg
clearance [37]: 21.2 mL/min/kg
CL/F [38]: 35.9 mL/min/kg
half-life [39]: 8.92 h
half-life [40]: 11.2 h
